Test results: patent US12077503B2, “Substituted cyclic amides and their use as herbicides” (FMC CORPORATION, priority 2015, dated 2024)
Like-named read-outs stand apart in the source and are kept apart here.

What was measured:
Assay in all cases: Test A postemergence
Type in all cases: in vivo
[1] = tested on: ryegrass, Italian (Italian ryegrass, Lolium multiflorum); settings: Lolium multiflorum, post-emergence, 240 h; for pest or weed control at 125 g/ha: 125 g ai/ha, visual injury vs untreated controls after approx. 10 d, 0 = no effect, 100 = complete control, read-out: Ryegrass, Italian plant response rating (0 to 100 scale); for pest or weed control at 500 g/ha: 500 g ai/ha
Summary of the method: (§1)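 In a loam soil and sand blend, planted seeds got a preemergence directed soil spray, and young plants at the one- to two-leaf stage, 2–10 cm high, got a postemergence application; ~10 d greenhouse hold; injury rated visually, 0 = none, 100 = complete control.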

[2] = tested on: blackgrass (Alopecurus myosuroides); settings: Alopecurus myosuroides, post-emergence, 240 h; for pest or weed control at 125 g/ha: 125 g ai/ha, visual injury vs untreated controls after approx. 10 d, 0 = no effect, 100 = complete control, read-out: Blackgrass plant response rating (0 to 100 scale); for pest or weed control at 500 g/ha: 500 g ai/ha
Summary of the method: as §1

[3] = tested on: Kochia (Kochia scoparia); settings: Bassia scoparia, post-emergence, 240 h; for pest or weed control at 125 g/ha: 125 g ai/ha, visual injury vs untreated controls after approx. 10 d, 0 = no effect, 100 = complete control, read-out: Kochia plant response rating (0 to 100 scale); for pest or weed control at 500 g/ha: 500 g ai/ha
Summary of the method: as §1

[4] = tested on: corn (Zea mays); settings: Zea mays, post-emergence, 240 h; for plant injury at 125 g/ha: 125 g ai/ha, visual injury vs untreated controls after approx. 10 d, 0 = no effect, 100 = complete control, read-out: Corn plant response rating (0 to 100 scale); for plant injury at 125 g/ha / plant injury at 500 g/ha: postemergence; for plant injury at 500 g/ha / Corn plant response rating (crop injury, 0 = no effect, 100 = complete kill) at 500 g/ha: 500 g ai/ha; for plant injury at 500 g/ha: 0 to 100 scale, 0 is no effect, 100 is complete control, read-out: Corn plant response rating; for Corn plant response rating (crop injury, 0 = no effect, 100 = complete kill) at 500 g/ha: Postemergence, visual injury, 0 to 100 scale (0 no effect, 100 complete control), approx. 10 d
Summary of the method: as §1

[5] = tested on: pigweed (Amaranthus retroflexus); settings: Amaranthus retroflexus, post-emergence, 240 h; for pest or weed control at 125 g/ha: 125 g ai/ha, visual injury vs untreated controls after approx. 10 d, 0 = no effect, 100 = complete control, read-out: Pigweed plant response rating (0 to 100 scale); for pest or weed control at 500 g/ha: 500 g ai/ha
Summary of the method: as §1

[6] = tested on: ragweed (common ragweed, Ambrosia elatior); settings: Ambrosia artemisiifolia, post-emergence, 240 h; for pest or weed control at 125 g/ha: 125 g ai/ha, visual injury vs untreated controls after approx. 10 d, 0 = no effect, 100 = complete control, read-out: Ragweed plant response rating (0 to 100 scale); for pest or weed control at 500 g/ha: 500 g ai/ha
Summary of the method: as §1

[7] = postemergence, 0 to 100 scale, 0 is no effect, 100 is complete control, read-out: Ryegrass, Italian plant response rating
[8] = postemergence, 0 to 100 scale, 0 is no effect, 100 is complete control, read-out: Blackgrass plant response rating
[9] = postemergence, 0 to 100 scale, 0 is no effect, 100 is complete control, read-out: Kochia plant response rating
[10] = postemergence, 0 to 100 scale, 0 is no effect, 100 is complete control, read-out: Pigweed plant response rating
[11] = postemergence, 0 to 100 scale, 0 is no effect, 100 is complete control, read-out: Ragweed plant response rating
[12] = Postemergence, visual injury, 0 to 100 scale (0 no effect, 100 complete control), approx. 10 d, read-out: Plant response rating, Ryegrass, Italian
[13] = Postemergence, visual injury, 0 to 100 scale (0 no effect, 100 complete control), approx. 10 d, read-out: Plant response rating, Blackgrass
[14] = Postemergence, visual injury, 0 to 100 scale (0 no effect, 100 complete control), approx. 10 d, read-out: Plant response rating, Kochia
[15] = Postemergence, visual injury, 0 to 100 scale (0 no effect, 100 complete control), approx. 10 d, read-out: Plant response rating, Pigweed
[16] = Postemergence, visual injury, 0 to 100 scale (0 no effect, 100 complete control), approx. 10 d, read-out: Plant response rating, Ragweed

Row | SMILES | pest or weed control at 125 g/ha ([1]; postemergence) | pest or weed control at 500 g/ha [1, 7] | pest or weed control at 125 g/ha ([2]; postemergence) | pest or weed control at 500 g/ha [2, 8] | pest or weed control at 125 g/ha ([3]; postemergence) | pest or weed control at 500 g/ha [3, 9] | plant injury at 125 g/ha [4] | plant injury at 500 g/ha [4] | pest or weed control at 125 g/ha ([5]; postemergence) | pest or weed control at 500 g/ha [5, 10] | pest or weed control at 125 g/ha ([6]; postemergence) | pest or weed control at 500 g/ha [6, 11] | pest or weed control at 500 g/ha [1, 12] | pest or weed control at 500 g/ha [2, 13] | pest or weed control at 500 g/ha [3, 14] | Corn plant response rating (crop injury, 0 = no effect, 100 = complete kill) at 500 g/ha [4] | pest or weed control at 500 g/ha [5, 15] | pest or weed control at 500 g/ha [6, 16]
1 | CN1C[C@H](c2ccc3c(c2)OC(F)(F)O3)[C@@H](C(=O)Nc2ccc(F)c(F)c2F)C1=O [Compound 1204] | 70% | 80% | 50% | 70% | 80% | 80% | 70% | 80% | 70% | 80% | 20% | 60% |  |  |  |  |  | 
2 | COc1cc(C(F)(F)F)ccc1[C@H]1CN(C)C(=O)[C@@H]1C(=O)Nc1cccc(F)c1C [Compound 1205] | 0% | 30% | 0% | 20% | 0% | 0% | 70% | 80% | 0% | 0% | 0% | 0% |  |  |  |  |  | 
3 | Cc1c(F)cccc1NC(=O)[C@H]1C(=O)N(C)C[C@@H]1c1ccc(F)c(Br)c1 [Compound 1211] | 0% | 70% | 30% | 40% | 0% | 30% | 80% | 90% | 30% | 30% | 0% | 0% |  |  |  |  |  | 
4 | Cc1c(F)cccc1NC(=O)[C@H]1C(=O)N(C)C[C@@H]1c1ccc(OC(F)F)cc1 [Compound 1213] | 0% | 50% | 20% | 40% | 50% | 60% | 50% | 80% | 0% | 0% | 0% | 0% |  |  |  |  |  | 
5 | CN1C[C@H](c2cc(F)cc(C(F)(F)F)c2)[C@@H](C(=O)Nc2cccc(F)c2F)C1=O [Compound 1214] | 60% | 80% | 80% | 80% | 60% | 80% | 80% | 90% | 30% | 60% | 0% | 30% |  |  |  |  |  | 
6 | COc1ccc([C@H]2CN(C)C(=O)[C@@H]2C(=O)Nc2ccccc2F)c(OC)c1 [Compound 1215] | 0% | 0% | 0% | 0% | 0% | 30% | 0% | 0% | 0% | 0% | 0% | 0% |  |  |  |  |  | 
7 | COc1cc([C@H]2CN(C)C(=O)[C@@H]2C(=O)Nc2ccccc2F)cc(OC)c1OC [Compound 1217] | 0% | 0% | 0% | 0% | 0% | 0% | 0% | 0% | 0% | 0% | 0% | 0% |  |  |  |  |  | 
8 | CN1C[C@H](c2ccc(F)c(Br)c2)[C@@H](C(=O)Nc2cccc(F)c2F)C1=O [Compound 1234] | 40% | 70% | 30% | 60% | 40% | 50% | 80% | 100% | 20% | 50% | 30% | 30% |  |  |  |  |  | 
9 | O=C1NC[C@H](c2ccc(C(F)(F)F)cc2)C1C(=O)Nc1ccccc1CO (stereo partly drawn) [Compound 1242] | 0% | 0% | 0% | 0% | 0% | 0% | 0% | 0% | 0% | 0% | 0% | 0% |  |  |  |  |  | 
10 | Cc1cc([C@H]2CNC(=O)[C@@H]2C(=O)Nc2ccccc2C(F)(F)F)ccc1Cl [Compound 1245] | 0% | 0% | 30% | 60% | 0% | 40% | 0% | 0% | 0% | 0% | 0% | 50% |  |  |  |  |  | 
11 | Cc1ccc([C@H]2CNC(=O)[C@@H]2C(=O)Nc2c(F)cccc2F)cc1C [Compound 1247] | 0% |  | 0% |  | 0% |  | 0% |  | 0% |  | 0% |  | 0% | 0% | 0% | 0% | 0% | 0%
12 | CSc1ccccc1NC(=O)[C@H]1C(=O)N(C)C[C@@H]1c1cccc(C(F)(F)F)c1 [Compound 1249] | 30% |  | 40% |  | 40% |  | 70% |  | 30% |  | 0% |  | 70% | 50% | 70% | 90% | 80% | 60%
13 | CSc1ccccc1NC(=O)[C@H]1C(=O)N(C)C[C@@H]1c1ccc2c(c1)OC(F)(F)O2 [Compound 1251] | 20% |  | 0% |  | 50% |  | 20% |  | 70% |  | 0% |  | 40% | 40% | 70% | 80% | 80% | 50%
